According to patent US12617831B2 (UNIVERSITE D'ANGERS, priority 2019, dated 2026):
Where two headings read alike, the source gives them in different places.

How the values were obtained:
[1] = system: human GIPr and the human GLP-2r; assay: Cyclic AMP assay (FRET, H74 probe), HEK-293 co-transfected with human GIPr and human GLP-2r; assay type: cell-based; settings: 10^-9 M
Procedure: (§1) Human HEK-293 cells were plated at a density of 2×10^5 cells/cm^2 in 4 well microslides (ibidi GmbH, Martinsried, Germany). […] Jalink (Netherland Cancer Institute, Amsterdam, Netherland). […] The image acquisition was performed with a 63 X, 1.4 N.A. oil immersion objective and a Hybrid® detector (Leica) and images were collected after 30 minutes. Donor excitation was made with a 458 nm Ar laser, donor emission was collected between 460-505 nm and acceptor emission between 520-600 nm by setting the SP8 spectrometer accordingly. FRET was expressed as the ratio between donor and acceptor signals.

[2] = system: MC3T3-E1 subclone 4 cells; assay type: cell-based, murine
Procedure: Briefly, MC3T3-E1 subclone 4 cells have been grown and propagated in α-MEM supplemented with 5% fetal bovine serum (FBS), 5% bovine calf serum (BCS), 100 U/mL penicillin, and 100 μg/mL streptomycin in a humidified atmosphere enriched with 5% CO2 at 37° C. […] This day was considered as day 1. The differentiation medium was replenished every two days. […] Cultures were rinsed at least six times with milliQ water, fixed in absolute ethanol, scrapped off the culture dish and transferred onto BaF2 windows where they were air-dried. Integrity of the collagen extracellular matrix was verified by comparing the obtained Fourier transform infrared spectrum with those of commercial collagen. Spectral analysis was performed using a Bruker Vertex 70 spectrometer (Bruker optics, Ettlingen, Germany) interfaced with a Bruker Hyperion 3000 infrared microscope equipped with a standard single element Mercury Cadmium Telluride (MCT) detector. Calibration of the infrared spectrometer is done once a week with a polystyrene film standard (Bruker optics). Infrared spectra were recorded at a resolution of 4 cm^-1, with an average of 32 scans in transmission mode. Background spectral images were collected under identical conditions from the same BaF2 windows at the beginning and end of each experiment to ensure instrument stability. At least 5 spectra were acquired for each condition and analyzed with a lab-made routine script (version 2.0) in Matlab R2016b (The Mathworks, Natick, MA). […] For GIP and GLP-2 dataset, the inventors used the collagen maturity data previously acquired and analyzed. First of all, collagen maturity obtained in control cultures, i.e. in the absence of double GIP/GLP-2 analogues, were averaged and subtracted to the all dataset. […] For each concentration of peptide, the mean, SD and number of events were computed. […] The GraphPad Prism analysis consisted in: […] Statistical Analysis […] Data are represented as mean±SD.

[3] = molecular target: T1, human GIPr (Homo sapiens, UniProt P48546); assay: Cyclic AMP assay (FRET, H74 probe), HEK-293 transfected with human GIPr; assay type: cell-based; settings: HEK 293 transfected only with human GIPr, 10^-9 M, 30 min (FIG. 16)
T1 construct: host or cells: HEK-293
T1 sequence (P48546 22-466): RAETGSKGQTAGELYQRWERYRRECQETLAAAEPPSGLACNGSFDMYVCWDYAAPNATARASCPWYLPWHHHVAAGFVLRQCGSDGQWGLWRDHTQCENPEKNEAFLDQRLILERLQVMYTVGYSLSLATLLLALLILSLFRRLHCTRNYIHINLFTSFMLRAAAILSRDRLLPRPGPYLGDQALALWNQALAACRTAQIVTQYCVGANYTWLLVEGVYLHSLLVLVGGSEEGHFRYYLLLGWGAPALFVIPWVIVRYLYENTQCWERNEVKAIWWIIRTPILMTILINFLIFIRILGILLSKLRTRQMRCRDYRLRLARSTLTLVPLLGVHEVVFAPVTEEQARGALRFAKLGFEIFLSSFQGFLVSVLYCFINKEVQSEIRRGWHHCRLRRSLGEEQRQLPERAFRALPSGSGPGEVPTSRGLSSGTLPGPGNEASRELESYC
Procedure: as §1

[4] = system: MC3T3-E1 cells; assay type: cell-based, murine
Procedure: Increased plasma membrane permeability that occurs during cell death can be visualised using trypan blue, a dye that is excluded from living cells and is incorporated into the cells when they are undergoing death (Bellido and Plotkin (2008) Methods Mol. Biol. 455:51-75).
After 24 h, the cell culture supernatant containing the floating cells was collected and put in previously labelled eppendorf tubes. Each well was washed in PBS before trypsin was added to detach adherent cells. The mixture containing detached adherent cells was collected and pooled in the eppendorf containing the cell culture supernatant. Cells were spun at 1,500 rotation per minute (rpm) for 10 minutes, the supernatant was removed carefully and cells were incubated with trypan blue 0.04% and transferred into a haemocytometer. Living (clear) and dead (blue) cells were counted under light microscope examination and the percentage of dead cells was determined for each condition as follow: % of dead cells=100×(Number of dead cells)/(Number of dead cells+Number of living cells)

[5] = system: Murine Raw 264.7 cells; assay type: cell-based; settings: for IC50 computed from curve fitting of osteoclastogenesis vs. peptide concentration: Raw 264.7, RANKL 10 ng/ml, 110 h, * values determined from previous experiments
Procedure: Murine Raw 264.7 cells were grown and expanded in propagation medium containing Dulbecco's modified Eagle medium (DMEM-Gibco) supplemented with 10% fetal bovine serum (FBS-Lonza), 100 U/mL penicillin and 100 μg/mL streptomycin (Gibco) in a humidified atmosphere enriched with 5% CO2 at 37° C. The first passage after thawing Raw 264.7 cells was considered as passage 1. Cells were used up to passage 8. […] Cultures were rinsed three times in distilled water and the residual activity was inhibited by 4% NaF (Sigma-Aldrich) for 30 min. Cells were then rinsed in distilled water and allowed to dry. TRAcP positive cells, with more than three nuclei, were identified as osteoclasts. The number of newly generated osteoclasts was assessed using light microscopic examination by a histologist that was blinded to the treatment intervention. […] For each concentration of peptide, the mean, SD and number of events were computed.

EC50 [2] [pM]	EC50 [5] [pM]	Structure (SMILES)	intracellular levels of cAMP ([1]; HEK 293 co-transfected with human GIPr and human GLP-2r, 30 min (FIG. 18))	magnitude of cAMP rise versus native peptides ([1]; co-transfected HEK 293 cells)	Emax for dose-effect curves on collagen maturity ([2]; MC3T3-E1, day 14) [%]	EC50 ([2]; MC3T3-E1, day 14, mean ± SD of 5 individual experiments, read-out: EC50 for dose-effect curves on collagen maturity) [pM]	intracellular levels of cAMP [3]	osteoblast cell death [4]	IC50 computed from curve fitting of osteoclastogenesis vs. peptide concentration [5] [pM]	EC50 ([5]; Raw 264.7, * data obtained in previous experiments, read-out: EC50 of inhibitory effect on osteoclastogenesis) [pM]
–	–	CC[C@H](C)[C@H](NC(=O)[C@H](CO)NC(=O)[C@H](CCSC)NC(=O)[C@H](CC(=O)O)NC(=O)[C@H](CO)NC(=O)CNC(=O)[C@H](Cc1ccccc1)NC(=O)[C@H](CO)NC(=O)CNC(=O)[C@H](CCC(=O)O)NC(=O)CNC(=O)[C@@H](N)Cc1c[nH]cn1)C(=O)N[C@@H](C)C(=O)N[C@@H](CC(C)C)C(=O)N[C@@H](CC(=O)O)C(=O)N[C@@H](CCCCN)C(=O)N[C@@H](CC(C)C)C(=O)N[C@@H](C)C(=O)N[C@@H](C)C(=O)N[C@@H](CCCNC(=N)N)C(=O)N[C@@H](CC(=O)O)C(=O)N[C@@H](Cc1ccccc1)C(=O)N[C@H](C(=O)N[C@@H](CC(N)=O)C(=O)N[C@@H](Cc1c[nH]c2ccccc12)C(=O)N[C@@H](CC(C)C)C(=O)N[C@@H](CC(C)C)C(=O)N[C@@H](CCC(N)=O)C(=O)N[C@H](C(=O)N[C@@H](CCCCN)C(=O)N[C@H](C(=O)N[C@H](C(=O)N[C@@H](CC(=O)O)C(=O)O)[C@@H](C)O)[C@@H](C)CC)[C@@H](C)O)C(C)C [GL-0001]	increased intracellular levels of cAMP	greater with GL-0001 than with each native peptide	207.0	26.2 ± 17.1	increased intracellular levels of cAMP	does not induce cell death	14.2	14.2
25.9 ± 14.5	6.2	CC[C@H](C)[C@H](NC(=O)[C@H](CO)NC(=O)[C@H](Cc1ccccc1)NC(=O)[C@H](CC(=O)O)NC(=O)[C@H](CO)NC(=O)CNC(=O)[C@H](Cc1ccccc1)NC(=O)[C@H](CO)NC(=O)CNC(=O)[C@H](CCC(=O)O)NC(=O)CNC(=O)[C@@H](N)Cc1c[nH]cn1)C(=O)N[C@@H](C)C(=O)N[C@@H](CC(C)C)C(=O)N[C@@H](CC(=O)O)C(=O)N[C@@H](CCCCN)C(=O)N[C@@H](CC(C)C)C(=O)N[C@@H](C)C(=O)N[C@@H](C)C(=O)N[C@@H](CCCNC(=N)N)C(=O)N[C@@H](CC(=O)O)C(=O)N[C@@H](Cc1ccccc1)C(=O)N[C@H](C(=O)N[C@@H](CC(N)=O)C(=O)N[C@@H](Cc1c[nH]c2ccccc12)C(=O)N[C@@H](CC(C)C)C(=O)N[C@@H](CC(C)C)C(=O)N[C@@H](CCC(N)=O)C(=O)N[C@H](C(=O)N[C@@H](CCCCN)C(N)=O)[C@@H](C)O)C(C)C [GL-0007]	–	–	232.3	–	–	–	6.2	–
